Results on 40 compounds are retold here after US6573262B2, “Composition and antiviral activity of substituted indoleoxoacetic piperazine derivatives” (priority 2000, dated 2003).

This test concerns HIV-1 single-round infectious reporter virus. Nature of the test: microbe, parasite or virus in culture. The class given is cell-based. The settings on record: for EC50: Human immunodeficiency virus 1, HeLa-CD4/CCR5, 72 h, read-out: EC50 Group from Table 1; for inhibition at 10 µM: Human immunodeficiency virus 1, HeLa-CD4/CCR5, read-out: % Inhibition @ 10 uM.

For the compound `O=C(NCc1nc2ccccc2[nH]1)c1ccc(F)c2c(C(=O)C(=O)N3CCN(C(=O)c4ccccc4)CC3)c[nH]c12` [Example 53], the EC50 is less than 1000 nM.

For `O=C(Nc1nn[nH]n1)c1ccc(F)c2c(C(=O)C(=O)N3CCN(C(=O)c4ccccc4)CC3)c[nH]c12` [Example 54], the EC50 is less than 1000 nM and the inhibition at 10 µM is more than 98%.

Turning to `CS(=O)(=O)NC(=O)c1ccc(F)c2c(C(=O)C(=O)N3CCN(C(=O)c4ccccc4)CC3)c[nH]c12` [Example 60], the EC50 was less than 1000 nM and the inhibition at 10 µM was more than 98%.

On to `CS(=O)(=O)NC(=O)c1cccc2c(C(=O)C(=O)N3CCN(C(=O)c4ccccc4)CC3)c[nH]c12` [Example 61], for which the EC50 was in the range of 1000 to 5000 nM and the inhibition at 10 µM was found to be 75%.

In the case of `O=C(C(=O)N1CCN(C(=O)c2ccccc2)CC1)c1c[nH]c2c(C(=O)NS(=O)(=O)c3ccccc3)cccc12` [Example 62], the EC50 was 1000 to 5000 nM and the inhibition at 10 µM was found to be 74%.

For `O=C(C(=O)N1CCN(C(=O)c2ccccc2)CC1)c1c[nH]c2c(C(=O)Nc3nnn[nH]3)cccc12` [Example 63], the concentration giving a half-maximal response (EC50) was less than 1000 nM and the inhibition at 10 µM was found to be 96%.

As for `CNC(=O)c1cccc2c(C(=O)C(=O)N3CCN(C(=O)c4ccccc4)C[C@H]3C)c[nH]c12` [Example 64], the EC50 is less than 1000 nM and the inhibition at 10 µM was more than 98%.

For `C[C@@H]1CN(C(=O)c2ccccc2)CCN1C(=O)C(=O)c1c[nH]c2c(C(=O)N(C)C)cccc12` [Example 65], the EC50 is less than 1000 nM and the inhibition at 10 µM was determined as 70%.

With `CCN(CC)CCNC(=O)c1cccc2c(C(=O)C(=O)N3CCN(C(=O)c4ccccc4)C[C@H]3C)c[nH]c12` [Example 66], the EC50 was less than 1000 nM and the inhibition at 10 µM stood at 98%.

With `CCNC(=O)c1cccc2c(C(=O)C(=O)N3CCN(C(=O)c4ccccc4)C[C@H]3C)c[nH]c12` [Example 67], the EC50 was less than 1000 nM and the inhibition at 10 µM was more than 98%.

Turning to `C[C@@H]1CN(C(=O)c2ccccc2)CCN1C(=O)C(=O)c1c[nH]c2c(C(=O)N3CCN(Cc4ccccc4)CC3)cccc12` [Example 68], the EC50 is less than 1000 nM and the inhibition at 10 µM is more than 98%.

For `O=C(C(=O)N1CCN(C(=O)c2ccccc2)CC1)c1c[nH]c2c(C(=O)N3CCN(C(=O)c4ccccc4)CC3)ccc(F)c12` [Example 69], the EC50 is less than 1000 nM and the inhibition at 10 µM was more than 98%.

For the compound `O=C(O)Cn1nnc(-c2ccc(F)c3c(C(=O)C(=O)N4CCN(C(=O)c5ccccc5)CC4)c[nH]c23)n1` [Example 70], the EC50 was less than 1000 nM and the inhibition at 10 µM is more than 98%.

As to `CNC(=O)Cn1nnc(-c2ccc(F)c3c(C(=O)C(=O)N4CCN(C(=O)c5ccccc5)CC4)c[nH]c23)n1` [Example 71], the EC50 is less than 1000 nM and the inhibition at 10 µM is more than 98%.

As to `COC(CNC(=O)c1ccc(F)c2c(C(=O)C(=O)N3CCN(C(=O)c4ccccc4)CC3)c[nH]c12)OC` [Example 72], the EC50 was less than 1000 nM and the inhibition at 10 µM is more than 98%.

Take `O=C(C(=O)N1CCN(C(=O)c2ccccc2)CC1)c1c[nH]c2c(-c3ncco3)ccc(F)c12` [Example 73]: the EC50 was less than 1000 nM and the inhibition at 10 µM is more than 98%.

With `N=C(NC1CC1)c1ccc(F)c2c(C(=O)C(=O)N3CCN(C(=O)c4ccccc4)CC3)c[nH]c12` [Example 75], the EC50 is less than 1000 nM and the inhibition at 10 µM was more than 98%.

On to `O=C(C(=O)N1CCN(C(=O)c2ccccc2)CC1)c1c[nH]c2c(-c3nc4ccccc4[nH]3)ccc(F)c12` [Example 76], for which the half-maximal effective concentration (EC50) is less than 1000 nM and the inhibition at 10 µM is more than 98%.

`N=C(NN)c1ccc(F)c2c(C(=O)C(=O)N3CCN(C(=O)c4ccccc4)CC3)c[nH]c12` [Example 77]: the inhibition at 10 µM is more than 98%.

Turning to `Cc1n[nH]c(-c2ccc(F)c3c(C(=O)C(=O)N4CCN(C(=O)c5ccccc5)CC4)c[nH]c23)n1` [Example 78], the EC50 is less than 1000 nM.

In the case of `O=C(C(=O)N1CCN(C(=O)c2ccccc2)CC1)c1c[nH]c2c(-c3ncon3)ccc(F)c12` [Example 79], the EC50 is less than 1000 nM and the inhibition at 10 µM was more than 98%.

With `Cc1nc(-c2ccc(F)c3c(C(=O)C(=O)N4CCN(C(=O)c5ccccc5)CC4)c[nH]c23)no1` [Example 80], the EC50 was less than 1000 nM and the inhibition at 10 µM is more than 98%.

`O=C(C(=O)N1CCN(C(=O)c2ccccc2)CC1)c1c[nH]c2c(-c3noc(C(Cl)(Cl)Cl)n3)ccc(F)c12` [Example 81]: the EC50 is less than 1000 nM.

With `O=C(C(=O)N1CCN(C(=O)c2ccccc2)CC1)c1c[nH]c2c(-c3noc(NC4CC4)n3)ccc(F)c12` [Example 82], the EC50 is less than 1000 nM and the inhibition at 10 µM was more than 98%.

Turning to `Nc1nc(-c2ccc(F)c3c(C(=O)C(=O)N4CCN(C(=O)c5ccccc5)CC4)c[nH]c23)no1` [Example 83], the EC50 was less than 1000 nM and the inhibition at 10 µM was more than 98%.

In the case of `O=C(C(=O)N1CCN(C(=O)c2ccccc2)CC1)c1c[nH]c2c(-c3cncn3Cc3ccccc3)ccc(F)c12` [Example 84], the EC50 is less than 1000 nM.

`O=C(C(=O)N1CCN(C(=O)c2ccccc2)CC1)c1c[nH]c2c(-c3cnc[nH]3)ccc(F)c12` [Example 85]: the EC50 was less than 1000 nM.

With `CCOC(=O)c1cc(-c2ccc(F)c3c(C(=O)C(=O)N4CCN(C(=O)c5ccccc5)CC4)c[nH]c23)[nH]n1` [Example 86], the EC50 was less than 1000 nM.

As for `CCOC(=O)c1cc(-c2ccc(F)c3c(C(=O)C(=O)N4CCN(C(=O)c5ccccc5)CC4)c[nH]c23)on1` [Example 87], the EC50 was less than 1000 nM.

Regarding `O=C(O)c1cc(-c2ccc(F)c3c(C(=O)C(=O)N4CCN(C(=O)c5ccccc5)CC4)c[nH]c23)[nH]n1` [Example 88], the EC50 was less than 1000 nM.

Regarding `CNC(=O)c1cc(-c2ccc(F)c3c(C(=O)C(=O)N4CCN(C(=O)c5ccccc5)CC4)c[nH]c23)[nH]n1` [Example 89], the EC50 was less than 1000 nM.

As to `O=C(O)c1cc(-c2ccc(F)c3c(C(=O)C(=O)N4CCN(C(=O)c5ccccc5)CC4)c[nH]c23)on1` [Example 90], the EC50 is less than 1000 nM.

Consider `CC(C)(C)OC(=O)NNC(=O)c1ccc(F)c2c(C(=O)C(=O)N3CCN(C(=O)c4ccccc4)CC3)c[nH]c12` [Example 91], for which the EC50 was less than 1000 nM.

`NNC(=O)c1ccc(F)c2c(C(=O)C(=O)N3CCN(C(=O)c4ccccc4)CC3)c[nH]c12` [Example 92]: the half-maximal effective concentration (EC50) was less than 1000 nM.

For `O=C(C(=O)N1CCN(C(=O)c2ccccc2)CC1)c1c[nH]c2c(-c3nnco3)ccc(F)c12` [Example 93], the EC50 was less than 1000 nM.

With `CC(=O)Nc1nc(-c2ccc(F)c3c(C(=O)C(=O)N4CCN(C(=O)c5ccccc5)CC4)c[nH]c23)no1` [Example 96], the EC50 is less than 1000 nM.

With `O=C(C(=O)N1CCN(C(=O)c2ccccc2)CC1)c1c[nH]c2c(-c3noc(CCl)n3)ccc(F)c12` [Example 97], the EC50 was less than 1000 nM.

In the case of `COC(=O)Cc1nc(-c2ccc(F)c3c(C(=O)C(=O)N4CCN(C(=O)c5ccccc5)CC4)c[nH]c23)no1` [Example 98], the EC50 was less than 1000 nM.

Regarding `CNC(=O)c1nc(-c2ccc(F)c3c(C(=O)C(=O)N4CCN(C(=O)c5ccccc5)CC4)c[nH]c23)no1` [Example 102], the EC50 is less than 1000 nM.

Consider `NC(=O)c1nc(-c2ccc(F)c3c(C(=O)C(=O)N4CCN(C(=O)c5ccccc5)CC4)c[nH]c23)no1` [Example 103], for which the EC50 was less than 1000 nM.
